Test results reported in patent US9718781B2, “Methods and compounds for treating proliferative disorders and viral infections” (University College Dublin, National University of Ireland, …, priority 2012, dated 2017).

Tests used:
TPα = target: T1, TPα (Homo sapiens, UniProt P21731); test: U46619-induced [Ca2+]i mobilization in HEK.TPα cells; format: cell-based; conditions: for remaining activity at 1 µM: antagonist 1 μM, read-out: Percentage of Control, TPα, 1 μM; for remaining activity at 1 µM / remaining activity at 10 µM: % of agonist-induced response in vehicle-treated cells; for remaining activity at 10 µM: antagonist 10 μM, read-out: Percentage of Control, TPα, 10 μM
T1 construct: expressed in transfected cells
T1 sequence (P21731 1-343): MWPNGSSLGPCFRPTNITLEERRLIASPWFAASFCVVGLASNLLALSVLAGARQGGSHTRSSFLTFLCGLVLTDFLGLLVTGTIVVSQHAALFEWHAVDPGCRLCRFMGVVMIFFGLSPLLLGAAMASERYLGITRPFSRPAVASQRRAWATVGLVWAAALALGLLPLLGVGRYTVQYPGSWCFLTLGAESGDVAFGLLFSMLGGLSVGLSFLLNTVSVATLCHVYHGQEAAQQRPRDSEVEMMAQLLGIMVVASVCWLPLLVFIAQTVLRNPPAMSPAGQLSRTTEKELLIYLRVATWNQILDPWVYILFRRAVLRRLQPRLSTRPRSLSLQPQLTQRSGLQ
From the text: (§1) An appropriate functional test for the evaluation of the agonistic and/or antagonistic potency of the compounds of the invention is the determination of calcium flux. Both TPα and TPβ are coupled to the G-protein Gαq. Therefore, stimulation of these receptors ultimately leads to a release of intracellular calcium ([Ca^2+]i) from intracellular stores. Consequently, the determination of [Ca^2+]i flux represents an appropriate functional test for the evaluation of the agonistic/antagonistic potency of compounds of the invention. Calcium can be measured using a molecule characterized by the covalent combination of a Ca^2+ chelating group and a fluorophore group. The Ca^2+ binding properties of these indicators are formed by the presence of a tetracarboxylic acid core as found for example in EGTA (Ethylene Glycol bis(2-aminoethyl)Tetraacetic Acid). Binding of Ca^2+ produces a wavelength shift in either the excitation or emission fluorescence spectra or a change in the emission intensity. Whereas the Ca^2+ binding to EGTA is pH dependent, recent dyes are designed from an EGTA derivative, BAPTA (1,2-Bis(2-Aminophenoxy)ethane-N,N,N′,N′-Tetraacetic Acid). Loading of these dyes inside cells commonly uses esterified forms (acetoxymethyl ester), which are able to cross the cell membranes and are subsequently hydrolyzed by esterases inside the cell.
(§2) Estimation of [Ca^2+]i flux is calculated from the fluorescence signal (F). For calibration, the maximal fluorescence (Fmax, Ca^2+-saturated form of the dye) as well as minimal fluorescence (Fmin, Ca^2+-free form of the dye) must be determined. These parameters are determined usually in situ after the experiment, for example by subsequent addition to the mixture of a cell-disrupting agent that releases all Ca^2+ such as Triton X100 and a potent Ca^2+-chelating agent such as EGTA. After subtraction of background fluorescence, [Ca^2+]; flux can be calculated for non-ratiometric indicators.
(§3) Intracellular [Ca^2+]; fluxes were measured using a fluorescence plate reader following a modified protocol of Kassack et al., ‘Quantitative comparison of functional screening by measuring intracellular Ca^2+ with radioligand binding at recombinant human dopamine receptors’, AAPS Pharmsci, 2002, 4(4); 102-111, in cell lines (e.g. HEK293 or other cell type) endogenously-expressing or over-expressing either TPα, TPβ or any other receptor or protein to be screened.
(§4) By way of example, HEK 293 cells which have been grown for 3-4 days in normal growth media (minimum essential media containing 10% FBS and 2 mmol/1 L-glutamine), under normal growth conditions (37° C., in humidified 5% CO2 atmosphere) are washed and harvested in KREBs-HEPES buffer (118 mM NaCl, 4.7 mM KCl, 1.2 mM MgSO4, 1.2 mM KH2PO4, 4.2 mM NaHCO3, 11.7 mM D-glucose, 1.3 mM CaCl2, 10 mM HEPES, pH 7.4). Cells are then incubated with 3 μM Fluo-4 in KREBs-HEPES buffer containing 1% Pluoronic F-127, for 1 hr at 25° C. with agitation. Then, cells are washed in KREBs-HEPES buffer containing 0.5% BSA and re-suspended at a final concentration of 3×10^5 cells/ml. Approx. 5.4×10^4 cells per well are plated in a 96-well plate and pre-incubated with test compounds for 10 m prior to measuring the fluorescence intensity at 520 nm for 25 seconds at 1 s intervals to monitor baseline using the Fluoroskan Ascent. Agonist (e.g., 1 μM U46619) is injected into separate wells by the automatic pipettor and fluorescence intensity is monitored at 520 nm for 75 seconds at 1 s intervals. Thereafter, Triton X100 and EGTA are added sequentially where Fmax refers to maximal fluorescence intensity measured after permeabilization of the cells with 2% Triton X100 and Fmin refers to fluorescence intensity measured after addition of 1 mM EGTA.
(§5) The dye Fluo-4 has its excitation peak at 480 nm, in the visible spectra, which spare cells to be damaged by UV (340-360 nm) stimulation and reduces auto-fluorescence of cells. […]

TPβ = target: T2, TPβ (Homo sapiens, UniProt P21731); test: U46619-induced [Ca2+]i mobilization in HEK.TPβ cells; format: cell-based; conditions: 1 μM U46619; for remaining activity at 1 µM / activity class in HEK.TPβ cells: antagonist 1 μM; for remaining activity at 1 µM / remaining activity at 10 µM: % of agonist-induced response in vehicle-treated cells; for remaining activity at 1 µM: read-out: Percentage of Control, TPβ, 1 μM; for remaining activity at 10 µM: antagonist 10 μM, read-out: Percentage of Control, TPβ, 10 μM
T2 construct: expressed in transfected cells
From the text: as §1, §2, §3, §4, §5

T2 sequence (P21731 1-407 isoform P21731-2): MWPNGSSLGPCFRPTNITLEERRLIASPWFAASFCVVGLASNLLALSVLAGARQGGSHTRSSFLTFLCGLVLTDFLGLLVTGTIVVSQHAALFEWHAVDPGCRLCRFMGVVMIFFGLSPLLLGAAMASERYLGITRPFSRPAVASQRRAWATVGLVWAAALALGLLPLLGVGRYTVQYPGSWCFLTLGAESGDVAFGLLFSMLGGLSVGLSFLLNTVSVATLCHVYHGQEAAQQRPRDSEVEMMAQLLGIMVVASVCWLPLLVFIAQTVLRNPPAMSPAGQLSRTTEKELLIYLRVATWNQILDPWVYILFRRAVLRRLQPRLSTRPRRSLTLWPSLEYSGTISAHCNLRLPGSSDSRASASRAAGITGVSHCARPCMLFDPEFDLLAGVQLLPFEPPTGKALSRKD

remaining activity at 1 µM (TPα; 1 μM U46619) [%]	remaining activity at 10 µM (TPα; 1 μM U46619) [%]	remaining activity at 1 µM (TPβ) [%]	remaining activity at 10 µM (TPβ) [%]	IC50 (TPα; HEK.TPα cells, 1 μM U46619, Table 2, read-out: IC50 data for U46619-mediated [Ca2+]i mobilization, TPα) [µM]	TPα:TPβ Selectivity Ratio (TPα; IC50 TPα/IC50 TPβ)	IC50 (TPβ; HEK.TPβ cells, Table 2, read-out: IC50 data for U46619-mediated [Ca2+]i mobilization, TPβ) [µM]	activity class in HEK.TPβ cells (TPβ)	SMILES
85 ± 2.71	54.9 ± 3.32	102 ± 3.59	90.1 ± 2.78	–	–	–	–	COc1ccc(-c2cccc(Oc3ccc(C(=O)N(C)C)cc3S(=O)(=O)NC(=O)NC(C)(C)C)c2)cc1 [NTP2, 3-(N-(tert-butylcarbamoyl)sulfamoyl)-4-((4′-methoxy-[1,1′-biphenyl]-3-yl)oxy)-N,N-dimethylbenzamide]
98.7 ± 9.29	61.7 ± 1.42	88.3 ± 5.27	72 ± 3.87	–	–	–	–	COc1ccc(-c2cccc(Oc3ccc(C(=O)O)cc3S(=O)(=O)NC(=O)NC(C)(C)C)c2)cc1 [NTP5, 3-(N-(tert-butylcarbamoyl)sulfamoyl)-4-((4′-methoxy-[1,1′-biphenyl]-3-yl)oxy)benzoic acid]
85.9 ± 9.13	70.4 ± 2.47	46.3 ± 7.33	12.2 ± 1.03	–	–	–	–	COc1ccc(-c2cccc(Oc3ccc(C(C)=O)cc3S(=O)(=O)NC(=O)NC(C)(C)C)c2)cc1 [NTP9, 5-acetyl-N-(tert-butylcarbamoyl)-2-((4′-methoxy-[1,1′-biphenyl]-3-yl)oxy)benzenesulfonamide]
95.5 ± 4.25	69.8 ± 1.73	96 ± 0.94	54.7 ± 8.1	–	–	–	–	CNC(=O)c1ccc(Oc2cccc(-c3ccc(OC)cc3)c2)c(S(=O)(=O)NC(=O)NC(C)(C)C)c1 [NTP10]
99.7 ± 2.13	77.9 ± 2.69	84.2 ± 7.51	34.4 ± 2.85	–	–	–	–	COc1ccc(-c2cccc(Oc3ccc(C(=O)NC4COC4)cc3S(=O)(=O)NC(=O)NC(C)(C)C)c2)cc1 [NTP12]
93.8 ± 13.9	95.2 ± 9.57	74 ± 3.66	36.2 ± 0.52	–	–	–	–	COc1ccc(-c2cccc(Oc3ccc(C(N)=O)cc3S(=O)(=O)NC(=O)NC(C)(C)C)c2)cc1 [NTP13]
117 ± 10.2	96.3 ± 1.24	83 ± 7.62	34 ± 3.88	–	–	–	–	COc1ccc(-c2cccc(Oc3ccc(C(=O)NCC4CC4)cc3S(=O)(=O)NC(=O)NC(C)(C)C)c2)cc1 [NTP16]
83.1 ± 4.85	59.5 ± 4.07	51.1 ± 1.13	13.3 ± 5.91	–	–	–	–	COc1ccc(-c2cccc(Oc3ccc(C(=O)N4CCC4)cc3S(=O)(=O)NC(=O)NC(C)(C)C)c2)cc1 [NTP17]

Second part, the compound before the results:

SMILES	remaining activity at 1 µM (TPα; 1 μM U46619) [%]	remaining activity at 10 µM (TPα; 1 μM U46619) [%]	remaining activity at 1 µM (TPβ) [%]	remaining activity at 10 µM (TPβ) [%]	IC50 (TPα; HEK.TPα cells, 1 μM U46619, Table 2, read-out: IC50 data for U46619-mediated [Ca2+]i mobilization, TPα) [µM]	TPα:TPβ Selectivity Ratio (TPα; IC50 TPα/IC50 TPβ)	IC50 (TPβ; HEK.TPβ cells, Table 2, read-out: IC50 data for U46619-mediated [Ca2+]i mobilization, TPβ) [µM]	activity class in HEK.TPβ cells (TPβ)
Cc1ccc(Nc2ccc([N+](=O)[O-])cc2S(=O)(=O)NC(=O)NC(C)(C)C)cc1 [BM573, reference compound]	48.5 ± 1.77	12 ± 0.76	23.8 ± 0.68	9.9 ± 1.8	–	–	–	–
CCCCCNC(=O)NS(=O)(=O)c1cc([N+](=O)[O-])ccc1Oc1cccc(-c2ccc(C)cc2)c1 [IX]	–	–	–	–	11.6	7.5	1.54	–
COc1ccc(-c2cccc(Oc3ccc(N)cc3S(=O)(=O)NC(=O)NC(C)(C)C)c2)cc1 [NTP1, 5-amino-N-(tert-butylcarbamoyl)-2-((4′-methoxy-[1,1′-biphenyl]-3-yl)oxy)benzene-sulfonamide]	77.8 ± 8.71	50.2 ± 6.39	101 ± 4.75	102 ± 4.15	–	–	–	–
COc1ccc(-c2cccc(Oc3ccc(C(F)(F)F)cc3S(=O)(=O)NC(=O)NC(C)(C)C)c2)cc1 [NTP3, N-(tert-butylcarbamoyl)-2-((4′-methoxy-[1,1′-biphenyl]-3-yl)oxy)-5-(trifluoromethyl)benzenesulfonamide]	69.6 ± 5.35	41.6 ± 5.45	46 ± 5.92	14.8 ± 2.44	–	–	–	ACTIVE
CCn1cc(-c2ccc(Oc3cccc(-c4ccc(OC)cc4)c3)c(S(=O)(=O)NC(=O)NC(C)(C)C)c2)cn1 [NTP6, N-(tert-butylcarbamoyl)-5-(1-ethyl-1H-pyrazol-4-yl)-2-((4′-methoxy-[1,1′-biphenyl]-3-yl)oxy)benzenesulfonamide]	88.6 ± 14.5	45.1 ± 5.75	94.4 ± 7.7	57.4 ± 6.86	–	–	–	–
COc1ccc(-c2cccc(Oc3ccc(Br)cc3S(=O)(=O)NC(=O)NC(C)(C)C)c2)cc1 [NTP7, 5-bromo-N-(tert-butylcarbamoyl)-2-((4′-methoxy-[1,1′-biphenyl]-3-yl)oxy)benzenesulfonamide]	61.5 ± 7.7	32.5 ± 3.95	49 ± 4.41	12.2 ± 1.93	–	–	–	ACTIVE
COc1ccc(-c2cccc(Oc3ccc(F)cc3S(=O)(=O)NC(=O)NC(C)(C)C)c2)cc1 [NTP8, N-(tert-butylcarbamoyl)-5-fluoro-2-((4′-methoxy-[1,1′-biphenyl]-3-yl)oxy)benzene-sulfonamide]	68 ± 5.05	49.9 ± 6.91	59.4 ± 1.85	14.6 ± 2.72	–	–	–	ACTIVE
COc1ccc(-c2cccc(Oc3ccc(C(=O)NCc4ccccn4)cc3S(=O)(=O)NC(=O)NC(C)(C)C)c2)cc1 [NTP11]	73.1 ± 5.28	75.4 ± 5.83	49.8 ± 1.86	20.7 ± 2.81	–	–	–	–
COCCNC(=O)c1ccc(Oc2cccc(-c3ccc(OC)cc3)c2)c(S(=O)(=O)NC(=O)NC(C)(C)C)c1 [NTP14]	83.5 ± 9.26	89.1 ± 9.1	86.4 ± 7.06	59.4 ± 7.67	–	–	–	–
COc1ccc(-c2cccc(Oc3ccc(C(=O)NCCN(C)C)cc3S(=O)(=O)NC(=O)NC(C)(C)C)c2)cc1 [NTP15]	79.8 ± 8.81	52.6 ± 8.42	87.6 ± 8.28	86.1 ± 5.64	–	–	–	–
COc1ccc(-c2cccc(Oc3ccc(-c4cn[nH]c4)cc3S(=O)(=O)NC(=O)NC(C)(C)C)c2)cc1 [NTP18]	93.4 ± 6.17	73.6 ± 2.98	45 ± 4.34	22.6 ± 2.28	–	–	–	–
COc1ccc(-c2cccc(Oc3ccc(-c4c(C)noc4C)cc3S(=O)(=O)NC(=O)NC(C)(C)C)c2)cc1 [NTP19]	97.6 ± 8.6	99.4 ± 16	77.7 ± 3.24	64.5 ± 4.65	–	–	–	–
